Test results published in patent US20240245607A1, “Microencapsulation of Active Agents” (Temple University-Of The Commonwealth System of Higher …, priority 2016, published 2024).
Structures can show the parent of a compound that is named as a salt. Where two headings read alike, the source gives them in different places.

Tests used:
[1] = IR spectra of encapsulated compounds in stearic acid microspheres (degradation); assay type: physicochemical
Method: Bitter taste stimuli are prepared in a similar manner, except at a pH of 8.0. Along with stearic acid, SOA is melted at ˜100° C., quinine HCl·7H2O is melted at ˜165° C., quinine HCl·2H2O is melted at 116° C., or n-propylthiouracil (PROP) is melted at ˜150° C. before addition to a rapidly stirred buffer solution. […] The quinine content of microspheres is measured by fluorescence emission or by absorbance in the ultra-violet region. SOA content of microspheres is measured by the anthrone reaction, and PROP and PTC content of microspheres is measured by UV absorption at 275 nm.
After drying, loaded microspheres are dissolved in a solvent such as acetonitrile or acetonitrile/HEPES, and the encapsulated compound is assayed by absorption spectroscopy, fluorescence emission, or infra-red spectroscopy. The melting point is then measured in order to identify the melting point range of the microspheres. If needed, these lipid microspheres could be embedded within pullulan-based films for long term storage. Stearic acid microspheres encapsulate 2,4-D or DCMU (Diuron) at a weight-to-weight ratio of approximately 15:I. In addition, the melting point of lipid microspheres is lowered to 38-40° C. for the controlled release of these compounds from microspheres. The melting temperature range varies from 8 to 10° C.

sweet taste = details: cited from earlier work

Row | Structure (SMILES) | degradation of components by IR spectra [1] | further results
1 | O=[N+]([O-])c1ccc(O)c([N+](=O)[O-])c1 [2,4-dinitrophenol] | – | degradation by IR data ([1]; after encapsulation within stearic acid microspheres): not degraded
2 | CN(C)C(=O)Nc1ccc(Cl)c(Cl)c1 [DCMU, diuron] | – | degradation by IR data [1]: undegraded
3 | CCCc1cc(=O)[nH]c(=S)[nH]1 [PROP, n-propylthiouracil] | no components were graded | –
4 | C=C[C@H]1C[N@@]2CC[C@H]1C[C@H]2[C@H](O)c1ccnc2ccc(OC)cc12 [quinine, quinine HCl] | no components were graded | –

Now from value to compound, other results behind:

Row | degradation of components by IR spectra [1] | Structure (SMILES) | further results
5 | no components were graded | CC(=O)OC[C@H]1O[C@@](COC(C)=O)(O[C@H]2O[C@H](COC(C)=O)[C@@H](OC(C)=O)[C@H](OC(C)=O)[C@H]2OC(C)=O)[C@@H](OC(C)=O)[C@@H]1OC(C)=O [SOA, sucrose octaacetate] | –
6 | no components were graded | OC[C@H]1O[C@H](O[C@]2(CCl)O[C@H](CCl)[C@@H](O)[C@@H]2O)[C@H](O)[C@@H](O)[C@H]1Cl [sucralose] | sweetness compared with sucrose (sweet taste): approximately 600 times
